In patent US12528797B2, “Heterocyclic compounds for medical treatment” (C4 Therapeutics, Inc., priority 2019, dated 2026) one finds Kd data, which are given here for 27 molecules.

Sequence of hCereblon(M1-L442)_hDDB1(M1-H1140) (Q96SW2 whole entry): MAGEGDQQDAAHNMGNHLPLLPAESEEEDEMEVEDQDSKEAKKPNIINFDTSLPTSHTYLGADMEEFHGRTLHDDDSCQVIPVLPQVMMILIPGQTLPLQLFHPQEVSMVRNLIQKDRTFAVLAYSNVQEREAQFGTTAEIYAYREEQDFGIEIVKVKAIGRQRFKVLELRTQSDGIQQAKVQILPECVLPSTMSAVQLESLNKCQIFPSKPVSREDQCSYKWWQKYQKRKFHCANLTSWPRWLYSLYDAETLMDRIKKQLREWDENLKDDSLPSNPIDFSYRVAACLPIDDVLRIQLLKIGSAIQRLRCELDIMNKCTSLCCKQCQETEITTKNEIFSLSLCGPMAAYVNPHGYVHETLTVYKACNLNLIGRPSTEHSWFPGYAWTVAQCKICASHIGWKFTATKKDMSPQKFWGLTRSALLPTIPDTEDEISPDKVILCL
Sequence of hCereblon(M1-L442)_hDDB1(M1-H1140) (Q16531 whole entry partner): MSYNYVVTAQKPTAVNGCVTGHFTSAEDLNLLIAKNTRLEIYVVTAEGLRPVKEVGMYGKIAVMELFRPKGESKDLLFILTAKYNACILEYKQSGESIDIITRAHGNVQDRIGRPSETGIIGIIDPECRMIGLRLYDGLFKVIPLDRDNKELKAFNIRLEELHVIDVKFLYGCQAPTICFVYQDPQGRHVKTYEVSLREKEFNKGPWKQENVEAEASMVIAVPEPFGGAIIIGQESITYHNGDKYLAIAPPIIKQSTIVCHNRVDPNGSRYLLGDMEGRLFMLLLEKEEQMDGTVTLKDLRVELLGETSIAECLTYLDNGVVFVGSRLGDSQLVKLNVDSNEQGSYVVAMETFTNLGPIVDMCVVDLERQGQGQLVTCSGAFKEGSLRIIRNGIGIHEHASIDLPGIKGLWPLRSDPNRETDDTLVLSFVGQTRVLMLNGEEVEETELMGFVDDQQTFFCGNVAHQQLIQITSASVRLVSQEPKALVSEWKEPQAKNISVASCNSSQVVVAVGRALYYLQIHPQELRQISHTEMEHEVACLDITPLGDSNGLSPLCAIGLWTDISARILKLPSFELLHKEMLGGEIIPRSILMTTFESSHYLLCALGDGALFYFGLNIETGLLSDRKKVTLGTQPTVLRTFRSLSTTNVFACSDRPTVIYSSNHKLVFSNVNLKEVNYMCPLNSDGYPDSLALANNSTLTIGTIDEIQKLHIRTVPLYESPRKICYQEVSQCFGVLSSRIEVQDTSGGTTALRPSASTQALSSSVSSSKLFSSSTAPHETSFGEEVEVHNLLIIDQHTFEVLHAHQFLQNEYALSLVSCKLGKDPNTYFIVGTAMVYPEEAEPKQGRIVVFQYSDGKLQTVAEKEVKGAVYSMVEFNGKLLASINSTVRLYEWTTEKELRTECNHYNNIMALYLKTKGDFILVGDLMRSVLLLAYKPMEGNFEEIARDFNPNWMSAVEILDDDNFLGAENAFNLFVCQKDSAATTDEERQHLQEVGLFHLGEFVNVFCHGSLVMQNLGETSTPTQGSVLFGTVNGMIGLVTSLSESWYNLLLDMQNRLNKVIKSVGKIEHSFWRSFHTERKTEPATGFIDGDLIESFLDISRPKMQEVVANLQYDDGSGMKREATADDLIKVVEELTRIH

This assay addresses hCereblon(M1-L442)_hDDB1(M1-H1140) (Homo sapiens (Human), UniProt Q96SW2). Nature of the assay: Fluorescence direct binding (tryptophan fluorescence titration). To be noted: 20° C., excitation 280 nm, emission 340 nm, assay buffer 50 mM Hepes 7.4 200 mM NaCl; read-out: Fluorescence h-Cereblon_DDB1 Mean Kd_EQ. On the procedure:
Fluorescence Direct Binding Protocol
Determination of the affinities of compounds to protein containing one or more tryptophan is measurable by monitoring the fluorescence emission in direct mode. The measurements depending on the protein available amounts are performed either manually in a cuvette on ISS-PC1 photon counting spectrofluorometer or automatically in well plates on a fluorescence plate reader device. Fluorescence titrations are performed at 20° C. in the chosen binding assay buffer by using a defined constant protein concentration against ligand concentration variations. Small aliquots of known ligand concentration solubilized in DMSO were added and the fluorescence, excited at 280 nm, was recorded at 340 nm. The fluorescence intensity was corrected for protein dilution and for the filter effect (Birdsall et al.). The corrected fluorescence intensity was plotted against the ligand concentration and fitted using a four-parameter sigmoidal function, from which the equilibrium dissociation constant Kd was computed using the law of mass action assuming a 1:1 protein-ligand complex (Eftink, 1997).
• 1) Optimization of measurement parameters to minimize protein consumption and to minimize the dilution effect and the DMSO content • 2) Titration measurements of the protein against ligand by at least 12 titration steps to obtain a good s-curve fit • 3) Repeat the same titration measurements with the ligand alone to enable correction • 4) Check the stability of the protein once by titration against DMSO alone • 5) Determination of the molar extinction coefficients of the ligand at 280 and 340 nm with help of an UV-spectrophotometer • 6) Use Excel template for the correction of the measured raw data Use GraphPad Prism software for the quadratic binding fit and the KD evaluation.
Consider `O=C(Nc1ccc2[nH]c(=O)oc2c1)c1ccccc1` [Example 1, N-(2-Oxo-3H-1,3-benzoxazol-6-yl)benzamide], for which the Kd stood at 4 nM.

For the molecule `O=C1Cc2cc(NC(=O)c3ccco3)ccc2N1` [Example 2, N-(2-Oxoindolin-5-yl)furan-2-carboxamide], the Kd is 7 nM.

Regarding `Cc1ccccc1OCC(=O)Nc1ccc2[nH]c(=O)sc2c1` [Example 3, 2-(2-Methylphenoxy)-N-(2-oxo-3H-1,3-benzothiazol-6-yl)acetamide], the Kd was 14 nM.

Turning to `CNC(=O)c1ccc2c(c1)nc(C(C)C)n2-c1ccc2c(c1)NC(=O)C2` [Example 4, 2-Isopropyl-N-methyl-1-(2-oxoindolin-6-yl)benzimidazole-5-carboxamide], the Kd came to 2 nM.

Take `CNC(=O)c1ccc2c(c1)nc(C(C)C)n2-c1ccc2c(c1)CC(=O)N2` [Example 5, 2-Isopropyl-N-methyl-1-(2-oxoindolin-5-yl)benzimidazole-5-carboxamide]: the Kd turned out to be 3 nM.

Take `Nc1ccccc1Nc1ccc2[nH]c(=O)sc2c1` [Example 6, 6-(2-Aminoanilino)-3H-1,3-benzothiazol-2-one]: the Kd was under 1 nM.

On to `CC(C)c1nc2ccccc2n1-c1ccc2[nH]c(=O)sc2c1` [Example 7, 6-(2-Isopropylbenzimidazol-1-yl)-3H-1,3-benzothiazol-2-one], for which the Kd was 19 nM.

Regarding `Nc1ccccc1Nc1ccc2[nH]c(=O)oc2c1` [Example 8, 6-(2-Aminoanilino)-3H-1,3-benzoxazol-2-one], the Kd came out at 8 nM.

In the case of `CC(C)c1nc2ccccc2n1-c1ccc2[nH]c(=O)oc2c1` [Example 9, 6-(2-Isopropylbenzimidazol-1-yl)-3H-1,3-benzoxazol-2-one], the Kd was 108 nM.

With `O=C1Cc2cc(C(=O)Nc3ccccc3)ccc2N1` [Example 10, 2-Oxo-N-phenylindoline-5-carboxamide], the Kd amounted to 91 nM.

On to `O=C(Nc1ccccc1)c1ccc2[nH]c(=O)oc2c1` [Example 11, 2-Oxo-N-phenyl-3H-1,3-benzoxazole-6-carboxamide], for which the Kd came to 54 nM.

On to `CC(=O)N1CCC(NC(=O)c2ccc3[nH]c(=O)oc3c2)CC1` [Example 12, N-(1-Acetyl-4-piperidyl)-2-oxo-3H-1,3-benzoxazole-6-carboxamide], for which the Kd amounted to 6 nM.

For `O=C(c1ccc2[nH]c(=O)oc2c1)N1CCc2ccccc21` [Example 13, 6-(Indoline-1-carbonyl)-3H-1,3-benzoxazol-2-one], the Kd stood at 4 nM.

For `O=C(c1ccc2[nH]c(=O)oc2c1)N1CCc2cccnc21` [Example 14, 6-(2,3-Dihydropyrrolo[2,3-b]pyridine-1-carbonyl)-3H-1,3-benzoxazol-2-one], the Kd came to 24 nM.

In the case of `O=C(Nc1ccccc1)c1ccc2[nH]c(=O)sc2c1` [Example 15, 2-Oxo-N-phenyl-3H-1,3-benzothiazole-6-carboxamide], the Kd amounted to 79 nM.

Consider `O=C(c1ccc2[nH]c(=O)sc2c1)N1CCc2ccccc21` [Example 16, 6-(Indoline-1-carbonyl)-3H-1,3-benzothiazol-2-one], for which the Kd is 28 nM.

On to `O=C1Cc2cc(C(=O)N3CCc4ccccc43)ccc2N1` [Example 17, 5-(Indoline-1-carbonyl)indolin-2-one], for which the Kd is 15 nM.

As for `O=C(Nc1ccccc1)c1cnc2[nH]c(=O)oc2c1` [Example 18, 2-Oxo-N-phenyl-3H-oxazolo[4,5-b]pyridine-6-carboxamide], the Kd worked out at 24 nM.

Turning to `CC(=O)N1CCC(NC(=O)c2cnc3[nH]c(=O)oc3c2)CC1` [Example 19, N-(1-Acetyl-4-piperidyl)-2-oxo-3H-oxazolo[4,5-b]pyridine-6-carboxamide], the Kd worked out at 7 nM.

For the molecule `O=C1Cc2cc(C(=O)N3CCc4ccccc43)cnc2N1` [Example 20, 5-(Indoline-1-carbonyl)-1,3-dihydropyrrolo[2,3-b]pyridin-2-one], the Kd was 13 nM.

`CC(C)c1nc2ccccc2n1-c1ccc2c(c1)C(F)(F)C(=O)N2` [Example 21, 3,3-Difluoro-5-(2-isopropylbenzimidazol-1-yl)indolin-2-one]: the Kd was under 1 nM.

Take `O=C(c1ccc2[nH]c(=O)oc2c1)N1Cc2cccc(O)c2C1` [Example 22, 6-(4-Hydroxyisoindoline-2-carbonyl)-3H-1,3-benzoxazol-2-one]: the Kd came out at 2 nM.

On to `O=C(c1ccc2[nH]c(=O)oc2c1)N1Cc2cccc([N+](=O)[O-])c2C1` [Example 23, 6-(4-Nitroisoindoline-2-carbonyl)-3H-1,3-benzoxazol-2-one], for which the Kd was found to be 14 nM.

As for `O=C(Nc1ccc2c(c1)C(F)(F)C(=O)N2)C1CCCc2ccccc21` (stereo not drawn) [Example 24, N-(3,3-difluoro-2-oxo-indolin-5-yl)tetralin-1-carboxamide], the Kd came out at 28 nM.

As for `O=C(Nc1ccc2c(c1)C(F)(F)C(=O)N2)c1coc2ccccc12` [Example 25, N-(3,3-difluoro-2-oxo-indolin-5-yl)benzofuran-3-carboxamide], the Kd came out at 52 nM.

For the molecule `CNC(=O)c1ccc2c(c1)nc(C(C)C)n2-c1cnc2c(c1)CC(=O)N2` [Example 26, 2-Isopropyl-N-methyl-1-(2-oxo-1,3-dihydropyrrolo[2,3-b]pyridin-5-yl)benzimidazole-5-carboxamide], the Kd was found to be 7 nM.

Take `CC(C)c1nc2ccccc2n1-c1cnc2c(c1)CC(=O)N2` [Example 27, 5-(2-Isopropylbenzimidazol-1-yl)-1,3-dihydropyrrolo[2,3-b]pyridin-2-one]: the Kd is under 1 nM.
